{"source": "a melting point compilation (Tetko et al.; mined from patent text by program, amines drawn as free bases though some values may be those of a salt)"}
{"units": {"melting point": "°C"}}
{"compound": "CCN1C(=O)C2C3CCC(CC3)C2(c2ccc(Cl)c(Cl)c2)C1=O", "note": "(stereo not given)", "melting point": "131 to 134"}
{"compound": "CCOc1cccnc1CSCCNC(=C[N+](=O)[O-])NC", "melting point": "130 to 131"}
{"compound": "CC12CC3CC(C)(C1)CC(C(=O)NCc1cccs1)(C3)C2", "melting point": "101 to 103"}
{"compound": "COC(=O)/C=C1\\CCCCC1n1nc(-c2c(-c3ccccc3)nn3ccccc23)ccc1=O", "note": "(stereo not given)", "melting point": "156 to 157"}
{"compound": "COC(=O)c1ccc(Cc2cc3cc(C(F)(F)F)ccc3n2S(=O)(=O)c2ccc(C(C)C)cc2)cc1", "melting point": 123}
{"compound": "O=C(NCc1ccc(Cl)cc1)c1cn2c3c(cc(CN4CCOCC4)cc3c1=O)OC(c1ccco1)C2", "note": "(stereo not given)", "melting point": "220 to 222"}
{"compound": "C[C@@H]1Cc2ccsc2[C@H](C)N1CCNC(=O)c1ccccn1", "note": "(relative stereo)", "melting point": "116 to 120"}
{"compound": "S=C=Nc1ccc2nccnc2c1Br", "melting point": "157 to 158"}
{"compound": "CCC(CC)Oc1cc(C)nc(Nc2c(C)cc(C)cc2C)c1NC(=O)CCl", "melting point": "79 to 82"}
{"compound": "CC(C)C=CC1(C(F)(F)F)OCC(=O)Nc2ccc(Cl)cc21", "note": "(stereo not given)", "melting point": "148 to 149"}
{"compound": "CC(C)(Oc1ccc(CN(Cc2ccccc2)c2ccc(Cl)cc2)cc1)C(=O)O", "melting point": "65 to 67"}
{"compound": "CCOc1ccc2[nH]c(=O)n(N3CCN(C)CC3)c2c1", "melting point": 108}
{"compound": "O=C(O)c1cn(C2CC2)c2nc(N3CCNCC3)c(F)cc2c1=O", "melting point": "274 to 276"}
{"compound": "C=CCc1c(OCC(=O)O)ccc2c(CCc3nc(-c4ccc(Cl)cc4Cl)oc3C(C)C)noc12", "melting point": "80 to 85"}
{"compound": "N#CC(CN)C(CO)c1ccc(Cl)c(Cl)c1", "note": "(single isomer, unassigned; (+))", "melting point": "80 to 81"}
{"compound": "CNC(=S)C(CN1CCOCC1)(OC)c1ccccn1", "note": "(stereo not given)", "melting point": "128 to 132"}
{"compound": "Cn1c([N+](=O)[O-])cnc1C=NN1CCN(CCN2CCOCC2)C1=O", "melting point": 173}
{"compound": "CC(C)(C#N)c1ccc(C(=O)CCCCl)cc1", "melting point": "79 to 80"}
{"compound": "O=c1[nH]c2c3ccccc3ccc2n(C2CC2)c1=O", "melting point": 307}
{"compound": "CC1(C)OC(=S)Nc2ccc(-c3ccc(F)cc3)cc21", "melting point": "221 to 223"}
{"compound": "CCc1nnc2c(N(C(C)=O)C(C)=O)nc3ccccc3n12", "melting point": "157 to 159"}
{"compound": "Nc1nc2ccc(S(=O)(=O)n3c(CCCC(=O)O)cc4cc(Cl)ccc43)cc2s1", "melting point": "155 to 162"}
{"compound": "N#CCCN1CCC(c2ccccc2)(c2ccccc2)CC1", "melting point": "95 to 96"}
{"compound": "c1ccc(-c2ccc3c(c2)sc2c4ccc(-c5ccccc5)cc4sc32)cc1", "melting point": "> 300"}
{"compound": "Cn1cncc1C(O)(c1ccc(F)cc1)c1ccc2c(c1)c(-c1cccc(Cl)c1)nc1nnnn12", "note": "(stereo not given)", "melting point": 200}
{"compound": "O=C(O)COc1ccc(-c2c3ccccc3cc3sc4cc(OCC(=O)O)ccc4c23)cc1", "melting point": "220 to 222"}
{"compound": "CC(C)(C)C(=O)Oc1ccc(N=Nc2ccc(OC(=O)C(C)(C)C)cc2)cc1", "melting point": "185 to 188"}
{"compound": "COc1ccc(CN(C)CCc2ccc(NC(=O)c3cccc4c(=O)c5cccc([N+](=O)[O-])c5[nH]c34)cc2)cc1OC", "melting point": 197}
{"compound": "COc1c(C(N)=O)nnn1Cc1ccccc1Cl", "melting point": "185 to 187"}
{"compound": "Brc1ccc(-c2csc(Br)n2)cc1", "melting point": "117 to 119"}
{"compound": "C[C@H](COc1ccc(C=C2SC(=S)N(CC(=O)O)C2=O)cc1O[C@@H](c1ccccc1)C(F)(F)F)c1ccccc1", "melting point": "73 to 80"}
{"compound": "CC(C)(C)OC(=O)N(CCOc1cccc2[nH]ccc12)Cc1ccccc1", "melting point": "46 to 48"}
{"compound": "Cc1ccc(-c2c(C)c(NC(=O)CC(C)(C)C)c(C)c3c2OCC3c2ccc(C(C)C)cc2)cc1", "note": "(stereo not given)", "melting point": "194 to 195"}
{"compound": "CCOCc1nc2c(N)nc3cc(OCc4cscn4)ccc3c2n1CC(C)(C)O", "melting point": "190 to 191"}
{"compound": "CC(C)(C)c1ccc(Cn2[nH]c(N)cc2=O)cc1", "melting point": 126}
{"compound": "Cc1ccccc1-c1cccc2c1CNC(=O)N2c1ccccc1", "melting point": "236 to 238"}
{"compound": "CC(C)CC(NC(=O)Cc1ccc2ccccc2c1)C(=O)NC(Cc1ccccc1)C(=O)CSCc1ccco1", "note": "(stereo not given)", "melting point": "123 to 125"}
{"compound": "C[C@H](Nc1ncnc2[nH]cnc12)c1oc2ccccc2c(=O)c1-c1cccc(F)c1", "melting point": "135 to 138"}
{"compound": "CCCc1ccc2oc(Cc3ccc(OC)cc3)c(C)c2c1O", "melting point": "83 to 96"}
{"compound": "CN(C)CCC1=Cc2ccc(OCc3ccc(-c4ccccc4)cc3)cc2CC1", "melting point": "123 to 126"}
{"compound": "COc1ccc(-c2oc3ccc(CC(=O)N4CCN(c5ccccc5)CC4)cc3c2SC)cc1OC", "melting point": 160}
{"compound": "O=C(CN1C(=O)c2ccccc2C1=O)c1ccc(F)cc1", "melting point": "140 to 144"}
{"compound": "CC(=O)N(C(=O)C(C)(C)C)C1CC(C)(C)N(OC(=O)C(C)(C)C)C(C)(C)C1", "melting point": "169 to 173"}
{"compound": "N#CCCc1c(SC(F)(F)F)c(C#N)c(Cl)n1-c1c(Cl)cc(C(F)(F)F)cc1Cl", "melting point": 150}
{"compound": "COC=C(C(=O)OC)n1ccc2ccc(-c3csc(-c4ccccc4)n3)cc21", "melting point": "145 to 146"}
{"compound": "OCCCc1oc(Sc2ccccn2)nc1-c1ccc(Cl)cc1", "melting point": "70 to 71"}
{"compound": "CCOC(=O)c1cc(O)n2c(C)nnc2n1", "melting point": "201 to 203"}
{"compound": "CCOc1cc(=O)oc2cc(C)ccc12", "melting point": "142 to 143"}
{"compound": "CCN1CCN(NC(=O)c2cc(Cl)c(N)cc2OC)CC1", "melting point": "177 to 178"}
{"compound": "COc1ccc(C2=C(c3ccc(OC4CCCCO4)cc3)CCCc3cc(OC4CCCCO4)ccc32)cc1", "note": "(stereo not given)", "melting point": "160 to 161"}
